# Assay results published in patent publication EP0320006A2, “Uses of 1,4-dihydropyridines” (LABORATOIRES SYNTEX, priority 1987, dated 1989).
# Marks after values point to notes of the source that are not given here.
# Key:
# Male CD1 mice = test: Anticonvulsant activity against pentylenetetrazole (PTZ) induced seizures; type: in vivo; details: for % Clonic: incidence of clonic seizures; for % Tonic: incidence of tonic seizures
# Description: The amount of test compound needed to prevent convulsions induced by a fixed amount of pentylenetetrazol can then be determined.
# (A) Male CD1 mice (Charles River) are randomly divided into groups of at least 20, and treated with 500 µg/Kg of (S,RS)-2,6-dimethyl-3-carbomethoxy-4-(3-nitrophenyl)-5-(3-[4-(2-tetrahydropyran-2-yloxyethyl)-phenoxy]propoxycarbonyl)-1,4-dihydropyridine (the compound is dissolved in 0.1 mL of ethanol and diluted with 99.9 mL saline and injected intraperitoneally) before subcutaneous administration of 100 mg/Kg pentylenetetrazole ("PTZ", a known convulsant) under the following dosing schedules: (A) 15 minutes prior to PTZ administration; (B) 60 minutes prior to PTZ administration; and (C) b.i.d. for three days prior to PTZ administration, a further dose being given on a fourth day 15 minutes prior to PTZ administration. After PTZ administration, the mice are observed for at least 30 minutes, and the incidence of clonic seizures, tonic seizures, and death is noted. The experiment is terminated by pentobarbitone overdose.
# [1] = system: CA₁ pyramidal cells in the hippocampus; test: Neuroprotection from ischemic damage: delayed neuronal death after bilateral carotid occlusion; type: in vivo, Mongolian gerbils; details: then B.I.D. three days post-ischemia
# Description: This experimental test is described in the literature by Kirino, T. Brain Research, 239, 57-69 (1982). A detailed description is set forth in Example 3.
# Mongolian gerbils of either sex (50-80 g) are treated with a test compound (or control) either intraperitoneally (IP) at 500 mg/kg 15 minutes prior to induction of ischemia followed by B.I.D. dosing for three days post-ischemia, or orally at 5 mg/kg twice daily for 3 out of 4 days and then 15 minutes prior to cerebral ischemia on the 4th day followed by B.I.D. dosing for three days post-ischemia. To facilitate induction of forebrain ischemia the animals are then anesthetized with halothane (5% in 30:70 oxygen:nitrous oxide) delivered by face mask. Following rapid induction, the halothane is decreased to 1.5-2% and maintained at that level for the remainder of the experiment. The left and right common carotid arteries are exposed in the paratracheal region through a ventral midline cervical skin incision and freed from the accompanying vagosympathetic nerve trunks. A loose ligature is placed around the arteries to facilitate identification at the time of occlusion.
# The carotid arteries are then bilaterally occluded for 5 minutes using microvascular clips (Ackland C-2-V, Weiss, London). Blood flow is then restored, the wound dusted with antibiotic powder (Cicatrin, Calmic Medical Division, The Wellcome Foundation Ltd., London), and sutured. The subjects are then caged individually and allowed food and water ad libitum. […]
# The extent of neuronal death is determined by counting microscopically (at 40x power) all normal and abnormal cells in five fields per hemisphere of the hippocampal CA₁ subfield from the paramedian area to its junction with CA₂ neurons. The field counts are then summed and the mean percentage of dead cells calculated (n=10 fields per brain). Statistical significance was calculated using the Student's t test for unpaired samples, with significance taken at p less than 0.05.
# dogs = test: Toxicology: three-month oral dosing; type: in vivo
# [2] = schedule A: 500 µg/Kg intraperitoneally 15 minutes prior to PTZ 100 mg/Kg s.c.
# [3] = schedule B: 500 µg/Kg intraperitoneally 60 minutes prior to PTZ 100 mg/Kg s.c.
# [4] = schedule C: 500 µg/Kg intraperitoneally b.i.d. for three days, further dose on fourth day 15 minutes prior to PTZ 100 mg/Kg s.c.
structure (smiles),measurement,setting,value
"COC(=O)C1=C(C)NC(C)=C(C(=O)OCCCOc2ccc(CCOC3CCCCO3)cc2)[C@H]1c1cccc([N+](=O)[O-])c1 (mixture of isomers) [X, (S,RS)-2,6-dimethyl-3-carbomethoxy-4-(3-nitrophenyl)-5-[3-(4-[2-(tetrahydropyran-2-yloxy)ethyl]phenoxy)propoxycarbonyl]-1,4-dihydropyridine]",anticonvulsant activity,"Male CD1 mice; PTZ test in mice, statement in words",demonstrates anticonvulsant activity
same,% Death,Male CD1 mice; [2],38.1* %
same,% Clonic,Male CD1 mice; [2],90.5%
same,% Tonic,Male CD1 mice; [2],90.5%
same,% Death,Male CD1 mice; [3],35* %
same,% Clonic,Male CD1 mice; [3],80%
same,% Tonic,Male CD1 mice; [3],40*** %
same,% Death,Male CD1 mice; [4],60%
same,% Clonic,Male CD1 mice; [4],65** %
same,% Tonic,Male CD1 mice; [4],55%
same,Percentage abnormal neurone count,"[1]; intraperitoneal administration, PEG 300 + water, 500 mg/kg 15 minutes prior to ischemia, 5 minutes occlusion, counted at 72 hours",6.6 ± 0.8%
same,Percentage abnormal neurone count,"[1]; intraperitoneal administration, alcoholic vehicle, 500 mg/kg 15 minutes prior to ischemia, 5 minutes occlusion, counted at 72 hours",5.6 ± 0.3%
same,Percentage abnormal neurone count,"[1]; oral, PEG 300 + vehicle, 5 mg/kg twice daily 3 out of 4 days, 15 minutes prior to ischemia on 4th day",58.0 ± 5.0%
same,pathological change,dogs; oral dosing of dogs for three months at 1.5 and 10 mg/kg/day,did not produce any pathological change
same,urine analysis,"dogs; oral dosing of dogs for three months, all doses",normal
same,Ophthalmoscopy,"dogs; oral dosing of dogs for three months, all doses, throughout the study",remained normal
